Reference: patent EP4745153A1, “GLP-1, GIP AND GCG RECEPTOR […] USE THEREOF” (Jiangsu Hengrui Pharmaceuticals Co., Ltd., priority 2023, dated 2025)
pEC50: −log10 of the molar value. Starred links: 1 amine or outer side, 2 acyl side, 3 side chain; linkers in the order of their positions; H or OH if unused. Non-standard residues stand in square brackets, D forms with d. Residues, ends and D or L forms follow the SMILES beside them. Groups on a side chain read outwards from the residue. ξ: configuration not given here. *: point of attachment. C20 diacid = O=C(O)CCCCCCCCCCCCCCCCCCC(=O)*; γGlu = O=C(O)[C@H](CCC(=O)[*:2])N[*:1]; αMeL = CC(C)C[C@](C)(N)C(=O)O; αMeK = C[C@](N)(CCCCN)C(=O)O; ξαMeL = CC(C)CC(C)(N)C(=O)O; AEEA = NCCOCCOCC(=O)O; Aib = CC(C)(N)C(=O)O

Legend:
[1] = Pharmacokinetics in mice after single intravenous injection; parameters: species or system C57 mice; settings: male, C57, mouse, in vivo, iv
Procedure: Male C57 mice were used as test animals. The target compound was administered via a single intravenous injection, and the pharmacokinetic characteristics of the compound in C57 mice in vivo (plasma) were determined.
Male C57 mice, weighing approximately 25g, aged 4-6 weeks. After preparing the polypeptide compound solution using 1×PBS dissolving solution, the compound was administered intravenously at a dose of 200 nmol/kg, where each compound was administered to 3 animals. Blood samples of 60 µL were collected at 5 min, 15 min, 0.5 h, 1 h, 2 h, 4 h, 6 h, 24 h, 48 h and 72 h after the infusion was completed and transferred to centrifuge tubes containing EDTA-K2 anticoagulant. Whole blood samples were centrifuged at 4000 g for 5 min at 4°C. Plasma was separated and plasma samples were frozen and stored at -80 °C.
Sample pretreatment method: 30 µL of plasma samples was taken, and 120 µL of 0.1% formic acid in methanol containing 1 ng/mL internal standard verapamil was added. The mixture was vortexed for 5 min, and centrifuged at 10000 rpm for 10 min at low temperature. 70 µL of supernatant was taken, and 70 µL of water was added and mixed well. Analysis was performed by LC-MS instrument.
LC-MS analysis method: (1) chromatographic conditions: mobile phases A and B: 0.1% formic acid in water and 0.1% formic acid in acetonitrile, respectively; gradient elution mode; flow rate: 0.5 mL/min; injection volume: 10 µL; chromatographic column: nanomicro Unisil C18aq (4.6 mm × 150 mm, 5 µm); column temperature: 40°C. (2) Mass spectrometry conditions: For mass spectrometry, an electrospray ionization source (ESI), positive ion analysis mode, and multiple reaction monitoring (MRM) scanning mode were used.
For data processing, SCIEX OS (Version 2.1.6) software was used to quantify blood drug concentration data and PKSolver (Version 2.0) software was used to calculate pharmacokinetic parameters.

human GIPR = target: T1, human GIPR (Homo sapiens, UniProt P48546); experiment: cAMP HTRF agonist activity assay in CHO-K1 cells expressing GIPR; format: cell-based; settings: read-out: Activity against human GIPR (EC50 nM); further: 5% FBS, 0.1% Casein
T1 construct: expressed in transfected cells; host or cells: CHO-K1 clonal cell line
T1 sequence (P48546 22-466): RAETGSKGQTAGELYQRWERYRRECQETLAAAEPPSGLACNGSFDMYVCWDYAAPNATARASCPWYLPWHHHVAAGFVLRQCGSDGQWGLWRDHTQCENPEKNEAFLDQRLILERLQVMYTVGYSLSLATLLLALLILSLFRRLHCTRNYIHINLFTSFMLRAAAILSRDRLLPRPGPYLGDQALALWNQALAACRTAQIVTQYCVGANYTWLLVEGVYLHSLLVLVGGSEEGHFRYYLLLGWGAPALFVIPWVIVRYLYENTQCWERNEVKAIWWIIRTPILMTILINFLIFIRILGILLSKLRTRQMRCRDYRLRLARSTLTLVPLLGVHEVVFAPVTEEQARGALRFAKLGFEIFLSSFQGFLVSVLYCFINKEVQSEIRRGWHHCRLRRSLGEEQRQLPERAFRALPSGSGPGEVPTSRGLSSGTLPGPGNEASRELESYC
Procedure: (§1) Functional activity was determined in CHO-K1 clonal cell lines expressing GIPR, GLP-1R, and GCGR. […] Each recipient cell (5000 cells/well) was added to an SV 96-well plate (Cisbio, 66PL96025) and incubated with the prepared polypeptide at 37°Cfor 30 min. The resulting increase in intracellular cAMP was quantitatively measured using the cAMP-GS dynamic HTRF assay kit (Cisbio, 62AM4PEJ). Briefly, the intracellular cAMP levels were determined by adding cAMP-d2 conjugate in cell lysis buffer, followed by the antibody anti-cAMP-Eu cryptate (also in cell lysis buffer).
(§2) Using the maximum response percentage vs. the added polypeptide concentration, the relative EC50 values were derived through nonlinear regression analysis and fitted to a four-parameter logarithmic equation. For specific data, refer to Tables 7-1 to 7-8 below. […]

human GLP-1R = target: T2, human GLP-1R (Homo sapiens, UniProt P43220); experiment: cAMP HTRF agonist activity assay in CHO-K1 cells expressing GLP-1R; format: cell-based
T2 construct: expressed in transfected cells; host or cells: CHO-K1 clonal cell line
Procedure: as §1, §2

T2 sequence (P43220 24-463): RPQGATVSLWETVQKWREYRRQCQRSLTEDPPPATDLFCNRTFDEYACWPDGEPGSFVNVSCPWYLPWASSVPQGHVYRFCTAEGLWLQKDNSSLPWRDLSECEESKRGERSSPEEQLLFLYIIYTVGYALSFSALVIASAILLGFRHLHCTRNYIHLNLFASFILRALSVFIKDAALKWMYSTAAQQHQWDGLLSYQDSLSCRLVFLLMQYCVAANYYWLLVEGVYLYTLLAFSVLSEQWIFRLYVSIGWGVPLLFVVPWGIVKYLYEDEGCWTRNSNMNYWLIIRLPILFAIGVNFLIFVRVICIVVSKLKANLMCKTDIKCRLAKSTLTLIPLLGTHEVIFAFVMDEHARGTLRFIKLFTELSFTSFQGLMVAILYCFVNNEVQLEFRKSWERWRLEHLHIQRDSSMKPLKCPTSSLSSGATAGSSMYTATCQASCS

Structure (SMILES) | clearance [1] | half-life [1] | EC50 (human GIPR) | pEC50 (human GLP-1R)
CC[C@H](C)[C@H](NC(=O)[C@H](CO)NC(=O)[C@H](CC(C)C)NC(=O)[C@H](CC(=O)O)NC(=O)[C@H](CO)NC(=O)[C@@H](NC(=O)[C@H](Cc1ccccc1)NC(=O)[C@@H](NC(=O)CNC(=O)[C@H](Cc1c[nH]cn1)NC(=O)C(C)(C)NC(=O)[C@@H](N)Cc1c[nH]cn1)[C@@H](C)O)[C@@H](C)O)C(=O)NC(C)(CC(C)C)C(=O)N[C@@H](CC(C)C)C(=O)N[C@@H](CCC(=O)O)C(=O)N[C@@H](CCCCNC(=O)COCCOCCNC(=O)COCCOCCNC(=O)CC[C@H](NC(=O)CCCCCCCCCCCCCCCCCCC(=O)O)C(=O)O)C(=O)N[C@@H](CCCCN)C(=O)N[C@@H](C)C(=O)N[C@@H](C)C(=O)N[C@@H](CCC(N)=O)C(=O)N[C@@H](CCC(=O)O)C(=O)N[C@@H](Cc1ccccc1)C(=O)N[C@H](C(=O)N[C@@H](CCC(=O)O)C(=O)N[C@@H](Cc1c[nH]c2ccccc12)C(=O)N[C@@H](CC(C)C)C(=O)N[C@@H](CC(C)C)C(=O)N[C@@H](C)C(=O)NCC(=O)NCC(=O)N1CCC[C@H]1C(=O)N[C@@H](CO)C(=O)N[C@@H](CO)C(=O)NCC(=O)N[C@@H](C)C(=O)N1CCC[C@H]1C(=O)N1CCC[C@H]1C(=O)N1CCC[C@H]1C(=O)N[C@@H](CO)C(N)=O)C(C)C (stereo partly shown) [Compound 0143] (H-H[Aib]HGTFTSDLSI[ξαMeL]LEK([AEEA-AEEA-γGlu-C20 diacid])KAAQEFVEWLLAGGPSSGAPPPS-NH2) | 2.82 mL/h/kg | 13.7 h | 0.004 nM | 
CC(C)C[C@H](NC(=O)[C@H](CC(C)C)NC(=O)[C@H](Cc1c[nH]c2ccccc12)NC(=O)[C@H](CCC(=O)O)NC(=O)[C@@H](NC(=O)[C@H](Cc1ccccc1)NC(=O)[C@H](CCC(=O)O)NC(=O)[C@H](CCC(N)=O)NC(=O)[C@H](CCC(N)=O)NC(=O)[C@H](C)NC(=O)[C@H](CCCCN)NC(=O)[C@H](CCCCNC(=O)COCCOCCNC(=O)COCCOCCNC(=O)CC[C@H](NC(=O)CCCCCCCCCCCCCCCCCCC(=O)O)C(=O)O)NC(=O)[C@H](CCC(=O)O)NC(=O)[C@H](CC(C)C)NC(=O)[C@H](Cc1ccc(O)cc1)NC(=O)[C@](C)(CCCCN)NC(=O)[C@H](CO)NC(=O)[C@H](Cc1ccc(O)cc1)NC(=O)[C@H](CC(=O)O)NC(=O)[C@H](CO)NC(=O)[C@@H](NC(=O)[C@H](Cc1ccccc1)NC(=O)[C@@H](NC(=O)CNC(=O)[C@H](Cc1c[nH]cn1)NC(=O)C(C)(C)NC(=O)[C@@H](N)Cc1c[nH]cn1)[C@@H](C)O)[C@@H](C)O)C(C)C)C(=O)N[C@@H](C)C(=O)NCC(=O)NCC(=O)N1CCC[C@H]1C(=O)N[C@@H](CO)C(=O)N[C@@H](CO)C(=O)NCC(=O)N[C@@H](C)C(=O)N1CCC[C@H]1C(=O)N1CCC[C@H]1C(=O)N1CCC[C@H]1C(=O)N[C@@H](CO)C(N)=O [Compound 0113] (H-H[Aib]HGTFTSDYS[αMeK]YLEK([AEEA-AEEA-γGlu-C20 diacid])KAQQEFVEWLLAGGPSSGAPPPS-NH2) |  |  |  | 10.49
CC[C@H](C)[C@H](NC(=O)[C@H](CO)NC(=O)[C@H](Cc1ccc(O)cc1)NC(=O)[C@H](CC(=O)O)NC(=O)[C@H](CO)NC(=O)[C@@H](NC(=O)[C@H](Cc1ccccc1)NC(=O)[C@@H](NC(=O)CNC(=O)[C@H](Cc1c[nH]cn1)NC(=O)C(C)(C)NC(=O)[C@@H](N)Cc1c[nH]cn1)[C@@H](C)O)[C@@H](C)O)C(=O)N[C@@](C)(CC(C)C)C(=O)N[C@@H](CC(C)C)C(=O)N[C@@H](CCC(=O)O)C(=O)N[C@@H](CCCCNC(=O)COCCOCCNC(=O)COCCOCCNC(=O)CC[C@H](NC(=O)CCCCCCCCCCCCCCCCCCC(=O)O)C(=O)O)C(=O)N[C@@H](CCCCN)C(=O)N[C@@H](C)C(=O)N[C@@H](C)C(=O)N[C@@H](CCC(N)=O)C(=O)N[C@@H](CCC(=O)O)C(=O)N[C@@H](Cc1ccccc1)C(=O)N[C@H](C(=O)N[C@@H](CCC(=O)O)C(=O)N[C@@H](Cc1c[nH]c2ccccc12)C(=O)N[C@@H](CC(C)C)C(=O)N[C@@H](CC(C)C)C(=O)N[C@@H](C)C(=O)N[C@H](CCC(=O)O)C(=O)NCC(=O)N1CCC[C@H]1C(=O)N[C@@H](CO)C(=O)N[C@@H](CO)C(=O)NCC(=O)N[C@@H](C)C(=O)N1CCC[C@H]1C(=O)N1CCC[C@H]1C(=O)N1CCC[C@H]1C(=O)N[C@@H](CO)C(N)=O)C(C)C [Compound 0139] | 4.86 mL/h/kg | 11.9 h | 0.007 nM | 
CC[C@H](C)[C@H](NC(=O)[C@H](CO)NC(=O)[C@H](CC(C)C)NC(=O)[C@H](CC(=O)O)NC(=O)[C@H](CO)NC(=O)[C@@H](NC(=O)[C@H](Cc1ccccc1)NC(=O)[C@@H](NC(=O)CNC(=O)[C@H](Cc1c[nH]cn1)NC(=O)C(C)(C)NC(=O)[C@@H](N)Cc1c[nH]cn1)[C@@H](C)O)[C@@H](C)O)C(=O)N[C@@H](CC(C)C)C(=O)N[C@@H](CC(C)C)C(=O)N[C@@H](CCC(=O)O)C(=O)N[C@@H](CCCCNC(=O)COCCOCCNC(=O)COCCOCCNC(=O)CC[C@H](NC(=O)CCCCCCCCCCCCCCCCCCC(=O)O)C(=O)O)C(=O)N[C@@H](CCC(N)=O)C(=O)N[C@@H](C)C(=O)N[C@@H](C)C(=O)NC1(C(=O)N[C@@H](CCC(=O)O)C(=O)N[C@@H](Cc2ccccc2)C(=O)N[C@H](C(=O)N[C@@H](CCC(=O)O)C(=O)N[C@@H](Cc2c[nH]c3ccccc23)C(=O)N[C@@H](CC(C)C)C(=O)N[C@@H](CC(C)C)C(=O)N[C@@H](C)C(=O)N[C@H](CCC(=O)O)C(=O)NCC(=O)N2CCC[C@H]2C(=O)N[C@@H](CO)C(=O)N[C@@H](CO)C(=O)NCC(=O)N[C@@H](C)C(=O)N2CCC[C@H]2C(=O)N2CCC[C@H]2C(=O)N2CCC[C@H]2C(=O)N[C@@H](CO)C(N)=O)C(C)C)CCC1 [Compound 0145] | 7.74 mL/h/kg | 7.7 h | 0.003 nM | 
CC[C@H](C)[C@H](NC(=O)[C@H](CO)NC(=O)[C@H](CC(C)C)NC(=O)[C@H](CC(=O)O)NC(=O)[C@H](CO)NC(=O)[C@@H](NC(=O)[C@H](Cc1ccccc1)NC(=O)[C@@H](NC(=O)CNC(=O)[C@H](Cc1c[nH]cn1)NC(=O)C(C)(C)NC(=O)[C@@H](N)Cc1c[nH]cn1)[C@@H](C)O)[C@@H](C)O)C(=O)N[C@@](C)(CC(C)C)C(=O)N[C@@H](CC(C)C)C(=O)N[C@@H](CCC(=O)O)C(=O)N[C@@H](CCCCNC(=O)COCCOCCNC(=O)COCCOCCNC(=O)CC[C@H](NC(=O)CCCCCCCCCCCCCCCCCCC(=O)O)C(=O)O)C(=O)N[C@@H](CCCCN)C(=O)N[C@@H](C)C(=O)N[C@@H](C)C(=O)N[C@@H](CCC(N)=O)C(=O)N[C@@H](CCC(=O)O)C(=O)N[C@@H](Cc1ccccc1)C(=O)N[C@H](C(=O)N[C@@H](CCC(=O)O)C(=O)N[C@@H](Cc1c[nH]c2ccccc12)C(=O)N[C@@H](CC(C)C)C(=O)N[C@@H](CC(C)C)C(=O)N[C@@H](C)C(=O)N[C@H](CCC(=O)O)C(=O)NCC(=O)N1CCC[C@H]1C(=O)N[C@@H](CO)C(=O)N[C@@H](CO)C(=O)NCC(=O)N[C@@H](C)C(=O)N1CCC[C@H]1C(=O)N1CCC[C@H]1C(=O)N1CCC[C@H]1C(=O)N[C@@H](CO)C(N)=O)C(C)C [Compound 0142] (H-H[Aib]HGTFTSDLSI[αMeL]LEK([AEEA-AEEA-γGlu-C20 diacid])KAAQEFVEWLLA[dE]GPSSGAPPPS-NH2) | 5.52 mL/h/kg | 10.5 h | 0.007 nM | 
